Experimental data from ChEMBL document CHEMBL1201862, “PubChem BioAssay data set” (2004).
One block for each compound: values may come before it. Active and inactive are the calls of the source.

Legend:
Type in all cases: functional
Genome polyprotein = Genome polyprotein (dengue virus type 2, UniProt P29990); assay: flavivirus cap methylation enzyme inhibition – biochemical, confirmation dose response, primary screen (AID 588689)
[1] = biological target: T1, Rac GTPase-activating protein 1 (Homo sapiens, UniProt Q9H0H5); assay: blockers of MgcRacGAP-driven Rac1 GTP hydrolysis – biochemical, ADP Hunter fluorescence, primary and confirmatory, confirmation (AID 624330)
T1 sequence (Q9H0H5 whole entry): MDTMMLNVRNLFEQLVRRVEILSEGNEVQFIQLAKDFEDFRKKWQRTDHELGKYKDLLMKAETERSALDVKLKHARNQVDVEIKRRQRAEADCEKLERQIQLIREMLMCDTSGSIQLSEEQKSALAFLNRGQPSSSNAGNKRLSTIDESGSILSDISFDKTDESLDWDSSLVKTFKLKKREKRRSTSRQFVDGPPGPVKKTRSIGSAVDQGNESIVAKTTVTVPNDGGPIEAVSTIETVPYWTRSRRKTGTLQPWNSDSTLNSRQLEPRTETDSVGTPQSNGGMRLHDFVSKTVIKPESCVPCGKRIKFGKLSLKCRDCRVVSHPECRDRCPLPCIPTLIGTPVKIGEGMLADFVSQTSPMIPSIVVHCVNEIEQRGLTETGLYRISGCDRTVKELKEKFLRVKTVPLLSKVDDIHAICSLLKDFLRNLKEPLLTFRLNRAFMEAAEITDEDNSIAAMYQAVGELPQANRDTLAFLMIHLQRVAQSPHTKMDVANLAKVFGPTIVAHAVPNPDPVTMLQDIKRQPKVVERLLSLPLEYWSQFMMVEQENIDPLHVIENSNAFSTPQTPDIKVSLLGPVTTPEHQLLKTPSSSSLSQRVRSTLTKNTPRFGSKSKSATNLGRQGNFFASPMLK

[2] = biological target: Tyrosine-protein kinase JAK2 (Homo sapiens, UniProt O60674);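 also: JAK2 tested as one member of a kinase panel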
Chain of Tyrosine-protein kinase JAK2 (O60674 whole entry): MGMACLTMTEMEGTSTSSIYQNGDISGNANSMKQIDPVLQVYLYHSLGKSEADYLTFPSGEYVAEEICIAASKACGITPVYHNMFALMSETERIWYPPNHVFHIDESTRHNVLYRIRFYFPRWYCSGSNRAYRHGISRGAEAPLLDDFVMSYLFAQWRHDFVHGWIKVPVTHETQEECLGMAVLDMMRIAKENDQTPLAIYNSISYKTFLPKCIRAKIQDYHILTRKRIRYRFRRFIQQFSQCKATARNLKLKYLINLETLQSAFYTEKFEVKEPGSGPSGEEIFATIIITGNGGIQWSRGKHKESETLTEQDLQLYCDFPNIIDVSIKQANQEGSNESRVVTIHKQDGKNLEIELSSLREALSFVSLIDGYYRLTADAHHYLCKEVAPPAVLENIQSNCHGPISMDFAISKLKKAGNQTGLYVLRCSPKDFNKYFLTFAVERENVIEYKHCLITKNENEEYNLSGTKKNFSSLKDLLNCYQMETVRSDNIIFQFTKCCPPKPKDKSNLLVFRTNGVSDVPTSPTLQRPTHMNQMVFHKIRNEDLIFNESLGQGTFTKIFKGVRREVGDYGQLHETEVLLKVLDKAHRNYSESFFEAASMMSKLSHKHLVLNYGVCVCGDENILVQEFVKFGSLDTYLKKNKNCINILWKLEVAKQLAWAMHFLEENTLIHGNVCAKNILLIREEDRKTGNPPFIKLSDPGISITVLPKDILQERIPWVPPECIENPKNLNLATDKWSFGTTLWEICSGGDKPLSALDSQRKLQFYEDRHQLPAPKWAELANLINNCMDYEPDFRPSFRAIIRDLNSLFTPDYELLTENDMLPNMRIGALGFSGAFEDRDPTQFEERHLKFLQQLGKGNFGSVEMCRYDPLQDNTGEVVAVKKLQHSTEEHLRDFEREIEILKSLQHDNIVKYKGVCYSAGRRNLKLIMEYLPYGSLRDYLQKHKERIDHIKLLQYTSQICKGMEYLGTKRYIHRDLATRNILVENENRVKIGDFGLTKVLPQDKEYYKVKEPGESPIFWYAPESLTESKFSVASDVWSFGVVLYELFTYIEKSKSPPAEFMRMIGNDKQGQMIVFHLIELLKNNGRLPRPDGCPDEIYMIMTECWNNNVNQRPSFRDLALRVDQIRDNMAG

[3] = biological target: Serine/threonine-protein kinase PLK3 (Homo sapiens, UniProt Q9H4B4)
[4] = biological target: Protein kinase C delta type (Homo sapiens, UniProt Q05655)
[5] = biological target: Tyrosine-protein kinase receptor TYRO3 (Homo sapiens, UniProt Q06418);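 also: TYRO3 value obtained as one member of a kinome-wide profiling panel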
[6] = biological target: Serine/threonine-protein kinase D3 (Homo sapiens, UniProt O94806);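 also: determined within a kinase panel screen, with PRKCN as the panel member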
Chain of Serine/threonine-protein kinase D3 (O94806 whole entry): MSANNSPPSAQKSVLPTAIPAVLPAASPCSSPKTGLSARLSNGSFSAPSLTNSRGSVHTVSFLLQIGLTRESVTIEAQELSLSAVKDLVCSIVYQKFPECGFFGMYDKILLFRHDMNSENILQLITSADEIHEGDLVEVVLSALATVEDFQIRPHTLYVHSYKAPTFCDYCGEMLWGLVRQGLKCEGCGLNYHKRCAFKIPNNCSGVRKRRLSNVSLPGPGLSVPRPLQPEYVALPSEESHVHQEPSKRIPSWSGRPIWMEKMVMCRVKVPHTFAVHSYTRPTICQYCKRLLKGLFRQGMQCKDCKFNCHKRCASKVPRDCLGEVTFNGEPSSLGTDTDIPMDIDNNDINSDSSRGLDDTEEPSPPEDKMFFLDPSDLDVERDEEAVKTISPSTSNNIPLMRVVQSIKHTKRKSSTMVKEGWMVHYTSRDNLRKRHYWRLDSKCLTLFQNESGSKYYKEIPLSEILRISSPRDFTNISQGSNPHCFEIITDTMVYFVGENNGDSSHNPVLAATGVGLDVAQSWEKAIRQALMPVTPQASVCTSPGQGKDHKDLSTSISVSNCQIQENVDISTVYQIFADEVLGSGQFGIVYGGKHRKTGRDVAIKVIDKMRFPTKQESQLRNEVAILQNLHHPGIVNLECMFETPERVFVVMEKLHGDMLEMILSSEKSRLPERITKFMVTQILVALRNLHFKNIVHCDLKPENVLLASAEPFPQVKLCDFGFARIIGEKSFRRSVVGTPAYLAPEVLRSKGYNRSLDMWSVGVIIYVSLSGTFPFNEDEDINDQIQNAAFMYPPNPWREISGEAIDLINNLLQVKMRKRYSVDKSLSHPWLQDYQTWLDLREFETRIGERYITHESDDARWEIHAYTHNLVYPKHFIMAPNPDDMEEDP

[7] = biological target: Death-associated protein kinase 3 (Homo sapiens, UniProt O43293);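 also: measured as one member of a kinome-wide profiling panel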
[8] = biological target: Cyclin-dependent kinase 2 (Homo sapiens, UniProt P24941);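 also: CDK2 measured as one member of a broad kinome profiling panel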
SRSF protein kinase 1 = SRSF protein kinase 1 (Homo sapiens, UniProt Q96SB4);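 also: measured as one member of a kinome-wide kinase profiling panel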
Aurora kinase A = Aurora kinase A (Homo sapiens, UniProt O14965);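 also: value from the Navigating the Kinome kinase panel profiling, panel entry STK6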
[9] = biological target: Tyrosine-protein kinase Lyn (Homo sapiens, UniProt P07948);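 also: lyn as one member of a kinase panel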
[10] = biological target: Serine/threonine-protein kinase N2 (Homo sapiens, UniProt Q16513)
[11] = biological target: Proto-oncogene tyrosine-protein kinase ROS (Homo sapiens, UniProt P08922);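 also: ROS1 tested as one member of a kinome-wide kinase panel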
[12] = biological target: Serine/threonine-protein kinase pim-3 (Homo sapiens, UniProt Q86V86);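 also: value obtained as one member of a broad kinase panel profiling effort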
[13] = biological target: Non-receptor tyrosine-protein kinase TYK2 (Homo sapiens, UniProt P29597)
Chain of Non-receptor tyrosine-protein kinase TYK2 (P29597 whole entry): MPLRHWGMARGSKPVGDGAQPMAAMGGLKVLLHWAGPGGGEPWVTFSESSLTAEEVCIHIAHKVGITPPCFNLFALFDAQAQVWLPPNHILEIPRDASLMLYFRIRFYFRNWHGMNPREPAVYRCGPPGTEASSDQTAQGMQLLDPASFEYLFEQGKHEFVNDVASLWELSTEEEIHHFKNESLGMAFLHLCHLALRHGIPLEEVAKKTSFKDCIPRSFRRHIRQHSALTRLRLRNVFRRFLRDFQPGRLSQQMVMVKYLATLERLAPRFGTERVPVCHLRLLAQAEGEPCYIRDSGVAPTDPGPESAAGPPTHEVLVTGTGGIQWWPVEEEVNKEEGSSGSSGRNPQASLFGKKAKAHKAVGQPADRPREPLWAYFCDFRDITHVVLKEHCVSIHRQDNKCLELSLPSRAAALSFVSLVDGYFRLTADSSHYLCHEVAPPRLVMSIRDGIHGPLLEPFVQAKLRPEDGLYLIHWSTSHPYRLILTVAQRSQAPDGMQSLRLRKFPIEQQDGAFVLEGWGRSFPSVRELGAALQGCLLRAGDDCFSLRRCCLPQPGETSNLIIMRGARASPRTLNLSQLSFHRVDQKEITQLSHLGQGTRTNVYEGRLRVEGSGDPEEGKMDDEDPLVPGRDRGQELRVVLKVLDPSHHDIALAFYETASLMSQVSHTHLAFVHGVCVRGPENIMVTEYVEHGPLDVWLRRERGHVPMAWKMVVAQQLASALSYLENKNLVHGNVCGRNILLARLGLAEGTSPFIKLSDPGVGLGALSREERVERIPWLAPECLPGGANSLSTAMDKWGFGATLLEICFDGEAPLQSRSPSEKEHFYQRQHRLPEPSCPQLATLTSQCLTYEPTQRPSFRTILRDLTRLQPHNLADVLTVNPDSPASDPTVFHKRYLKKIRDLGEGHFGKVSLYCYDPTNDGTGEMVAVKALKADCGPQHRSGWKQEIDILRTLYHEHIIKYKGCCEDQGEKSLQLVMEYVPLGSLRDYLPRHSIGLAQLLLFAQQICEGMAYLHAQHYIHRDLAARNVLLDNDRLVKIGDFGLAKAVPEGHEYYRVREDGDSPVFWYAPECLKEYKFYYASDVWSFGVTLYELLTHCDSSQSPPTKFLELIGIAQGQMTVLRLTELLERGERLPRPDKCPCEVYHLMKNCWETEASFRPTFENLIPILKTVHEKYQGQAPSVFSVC

[14] = biological target: Mitogen-activated protein kinase kinase kinase kinase 2 (Homo sapiens, UniProt Q12851);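 also: measured as one member of a kinome-wide kinase panel, with MAP4K2 as the panel entry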
Activated CDC42 kinase 1 = Activated CDC42 kinase 1 (Homo sapiens, UniProt Q07912); assay: Navigating the Kinome. Panel member name: ACK1
[15] = biological target: Casein kinase I isoform delta (Homo sapiens, UniProt P48730);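 also: measured as one member (CSNK1D) of a kinome panel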
Chain of Casein kinase I isoform delta (P48730 whole entry, canonical isoform): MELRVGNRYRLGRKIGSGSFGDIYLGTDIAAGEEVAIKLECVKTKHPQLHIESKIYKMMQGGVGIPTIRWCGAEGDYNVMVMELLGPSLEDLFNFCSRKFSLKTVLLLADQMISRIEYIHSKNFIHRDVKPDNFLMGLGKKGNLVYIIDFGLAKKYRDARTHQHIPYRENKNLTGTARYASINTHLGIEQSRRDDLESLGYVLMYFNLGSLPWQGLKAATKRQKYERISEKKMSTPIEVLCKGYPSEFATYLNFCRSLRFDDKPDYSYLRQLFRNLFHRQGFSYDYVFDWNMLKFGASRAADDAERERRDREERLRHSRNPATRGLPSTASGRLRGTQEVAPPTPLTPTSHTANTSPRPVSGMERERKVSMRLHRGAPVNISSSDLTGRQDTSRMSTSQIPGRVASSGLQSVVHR

[16] = biological target: Tyrosine-protein kinase ABL1 (Homo sapiens, UniProt P00519)
[17] = biological target: Cyclin-dependent kinase 5 (Homo sapiens, UniProt Q00535);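 also: CDK5 measured as one member of a kinase profiling panel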
[18] = biological target: Dual specificity tyrosine-phosphorylation-regulated kinase 4 (Homo sapiens, UniProt Q9NR20)
[19] = biological target: cAMP-dependent protein kinase catalytic subunit PRKX (Homo sapiens, UniProt P51817)
[20] = biological target: Maternal embryonic leucine zipper kinase (Homo sapiens, UniProt Q14680)
[21] = biological target: Interleukin-1 receptor-associated kinase 4 (Homo sapiens, UniProt Q9NWZ3)
Chain of Interleukin-1 receptor-associated kinase 4 (Q9NWZ3 whole entry): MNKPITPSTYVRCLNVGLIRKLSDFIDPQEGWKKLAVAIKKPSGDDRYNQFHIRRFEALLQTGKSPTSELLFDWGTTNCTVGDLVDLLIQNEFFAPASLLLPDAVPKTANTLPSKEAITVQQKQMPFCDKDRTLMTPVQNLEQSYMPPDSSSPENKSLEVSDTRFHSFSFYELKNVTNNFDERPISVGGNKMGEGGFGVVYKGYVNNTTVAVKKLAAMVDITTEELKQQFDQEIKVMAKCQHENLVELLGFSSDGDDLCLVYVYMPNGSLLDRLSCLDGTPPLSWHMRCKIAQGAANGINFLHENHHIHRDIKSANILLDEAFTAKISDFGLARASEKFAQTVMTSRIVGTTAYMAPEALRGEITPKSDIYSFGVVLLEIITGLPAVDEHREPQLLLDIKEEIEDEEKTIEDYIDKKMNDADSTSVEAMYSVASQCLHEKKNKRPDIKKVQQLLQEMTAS

[22] = biological target: Vascular endothelial growth factor receptor 3 (Homo sapiens, UniProt P35916);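 also: value from a kinome-wide profiling panel, with FLT4 as the panel member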
[23] = biological target: Tyrosine-protein kinase Fer (Homo sapiens, UniProt P16591);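 also: FER tested as one member of a kinome panel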
[24] = biological target: Calcium/calmodulin-dependent protein kinase type 1 (Homo sapiens, UniProt Q14012)
[25] = biological target: Tyrosine-protein kinase Fyn (Homo sapiens, UniProt P06241)
[26] = biological target: Homeodomain-interacting protein kinase 4 (Homo sapiens, UniProt Q8NE63)
[27] = biological target: 3-phosphoinositide-dependent protein kinase 1 (Homo sapiens, UniProt O15530);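 also: value comes from the Navigating the Kinome panel, PDPK1 member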
[28] = biological target: Vascular endothelial growth factor receptor 1 (Homo sapiens, UniProt P17948);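 also: measured within a kinome-wide profiling panel, FLT1 as the panel member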
[29] = biological target: BDNF/NT-3 growth factors receptor (Homo sapiens, UniProt Q16620);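 also: NTRK2 measured as one member of a broad kinome-wide kinase profiling panel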
[30] = biological target: Receptor tyrosine-protein kinase erbB-4 (Homo sapiens, UniProt Q15303);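 also: ERBB4 member of a kinome-wide kinase profiling panel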
[31] = biological target: Mitogen-activated protein kinase 12 (Homo sapiens, UniProt P53778);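 also: measured as one member of a kinome-wide kinase profiling panel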
[32] = biological target: Mitogen-activated protein kinase kinase kinase kinase 4 (Homo sapiens, UniProt O95819)
[33] = biological target: Dual specificity tyrosine-phosphorylation-regulated kinase 1A (Homo sapiens, UniProt Q13627);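 also: measured against DYRK1A as one member of a broad kinome profiling panel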

Chain of Genome polyprotein (P29990 2492-3391 limits assumed): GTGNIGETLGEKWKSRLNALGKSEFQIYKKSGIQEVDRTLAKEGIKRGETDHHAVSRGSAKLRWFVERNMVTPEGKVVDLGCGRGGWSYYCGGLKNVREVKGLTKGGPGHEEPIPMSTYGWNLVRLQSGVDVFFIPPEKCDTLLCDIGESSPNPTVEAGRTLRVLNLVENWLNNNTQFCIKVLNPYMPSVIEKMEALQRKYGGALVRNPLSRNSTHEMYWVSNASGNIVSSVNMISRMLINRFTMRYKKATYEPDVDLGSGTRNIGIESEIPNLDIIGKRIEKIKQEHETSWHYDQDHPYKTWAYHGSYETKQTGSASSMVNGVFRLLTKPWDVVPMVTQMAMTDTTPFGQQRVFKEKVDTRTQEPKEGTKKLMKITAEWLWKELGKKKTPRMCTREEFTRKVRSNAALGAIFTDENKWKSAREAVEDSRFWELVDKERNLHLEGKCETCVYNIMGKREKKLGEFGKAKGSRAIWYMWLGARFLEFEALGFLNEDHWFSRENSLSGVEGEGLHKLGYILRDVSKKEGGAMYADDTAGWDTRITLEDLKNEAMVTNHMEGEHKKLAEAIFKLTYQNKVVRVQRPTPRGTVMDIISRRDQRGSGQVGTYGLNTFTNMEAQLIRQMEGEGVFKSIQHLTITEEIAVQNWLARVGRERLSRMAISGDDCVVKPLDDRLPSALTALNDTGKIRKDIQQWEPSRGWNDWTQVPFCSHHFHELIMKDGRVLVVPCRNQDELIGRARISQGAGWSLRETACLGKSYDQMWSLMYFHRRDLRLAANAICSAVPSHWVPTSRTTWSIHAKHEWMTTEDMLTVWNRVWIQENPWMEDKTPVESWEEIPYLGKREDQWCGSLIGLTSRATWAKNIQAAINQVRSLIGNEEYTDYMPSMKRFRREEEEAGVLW

SMILES: Cc1ccc(/C=C2/C(=O)c3ccc(C(=O)O)cc3C2=O)o1
IC50 (Genome polyprotein): 40100 nM (active) | IC50 [1]: 294000 nM (active)

Ki [2]: > 2510 nM (inactive) | Ki [3]: 3980 nM (active) | Ki [4]: 316 nM (active) | Ki [5]: > 2510 nM (inactive) | Ki [6]: > 2510 nM (inactive) | Ki [8]: > 1580 nM (inactive) | Ki (SRSF protein kinase 1): > 7940 nM (inactive) | Ki (Aurora kinase A): > 1580 nM (inactive) | Ki [9]: 631 nM (active) | Ki [10]: 126 nM (active) | Ki [11]: 200 nM (active) | Ki [12]: 6310 nM (active) | Ki [13]: 1580 nM (active) | Ki [14]: 398 nM (active) | Ki (Activated CDC42 kinase 1): > 3980 nM (inactive) | Ki [15]: 1260 nM (active) | Ki [16]: > 631 nM (inactive) | Ki [17]: > 3980 nM (inactive) | Ki [18]: 1260 nM (active) | Ki [19]: 501 nM (active) | Ki [20]: 316 nM (active) | Ki [21]: 1260 nM (active) | Ki [22]: 1000 nM (active) | Ki [23]: 398 nM (active) | Ki [24]: > 1000 nM (inactive) | Ki [25]: > 794 nM (inactive) | Ki [26]: 1260 nM (active) | Ki [27]: 79.4 nM (active) | Ki [28]: > 398 nM (inactive) | Ki [29]: > 5010 nM (inactive) | Ki [30]: > 3980 nM (inactive) | Ki [31]: 3980 nM (active) | Ki [32]: > 200 nM (inactive) | Ki [33]: 631 nM (active)
SMILES: Clc1cc(NC2CCCCC2)nc(-c2c[nH]c3ncccc23)n1
Ki [7]: 2510 nM (active)
